Where two headings read alike, the source gives them in different places.
Columns and labels:
Assay type in all cases: cell-based
22RV1 = experiment: Cell proliferation assay (CellTiterGlo); settings: 22RV1 cells, 72 h compound treatment, CellTiterGlo cell viability, read-out: 22Rv1 ATP average IC50
Experimental: (§1) Test Example 1. Cell Proliferation Assay
(§2) The cell line used was 22RV1 or LNCaP, and the medium was RPMI-1640 containing 10% FBS and antibiotics. All incubations were performed at 37 °C in a humidified carbon dioxide incubator.
(§3) On day 1, cells were digested with 0.25% trypsin (containing EDTA) and collected by centrifugation. The cells were seeded in a 96-well plate (white wall/transparent bottom) at 5000 cells/well and cultured overnight.
(§4) On day 2, A stock solution of the compound at a concentration of 10 mM was subjected to an 8-fold serial dilution to obtain 8 concentration points. 2 µL of the compound solution at each concentration point was added to 98 µL of fresh medium, and the mixture was mixed homogeneously. Then, 5 µL of the compound solution diluted in the medium at each concentration point was added to 100 µL of overnight medium containing the cells, and 2 replicates were set for each concentration. The mixture was cultured for 72 h.
(§5) After 72 h of compound treatment, the plate was equilibrated to room temperature, 100 µL of CellTiterGlo (Promega) was added. The mixture was mixed homogeneously for 2 min, left to stand at room temperature for 10 min, and then read for luminescence values on a SpectraMax M5 microplate reader to evaluate cell viability. The positive control was 1% Tween-20 and the negative control was 0.1% DMSO. IC50 was generated by 4-parameter non-linear regression fitting in GraphPad Prism.

LNCaP = experiment: Cell proliferation assay (CellTiterGlo); settings: LNCaP cells, 72 h compound treatment, CellTiterGlo cell viability, read-out: LNCap ATP average IC50
Experimental: as §1, §2, §3, §4, §5

BRD4 = BRD4 (Homo sapiens, UniProt O60885); experiment: BRD4 degradation assay (Western-blot / Simple Western) in 22RV1 cells; settings: for activity at 0.2 µM: 22Rv1, 5 h, read-out: BRD4 degradation of 22RV1 (200 nM 5 h)

Compound	IC50 (22RV1)	IC50 (LNCaP)	BRD4 degradation of 22RV1 (200 nM 5 h) (BRD4; 22RV1 cells, 200 nM, 5 h, target content as percentage of control (DMSO = 100%))	IC50 (22RV1; Homo sapiens)	IC50 (LNCaP; Homo sapiens)	activity at 0.2 µM (BRD4)
Cc1sc2c(c1C)C(c1ccc(C#CCN)cc1)=N[C@@H](CC(=O)OC(C)(C)C)c1nnc(C)n1-2 [GNE-0011, reference compound]	< 0.05 µM	< 0.05 µM	B (20% < B <50%)	–	–	–
C=CC(=O)Nc1ccc(C2=N[C@@H](CC(=O)OC(C)(C)C)c3nnc(C)n3-c3sc(C)c(C)c32)cc1 [compound 9230]	–	–	–	< 0.05 µM	< 0.05 µM	< 20%
C=CS(=O)(=O)Nc1ccc(C2=N[C@@H](CC(=O)OC(C)(C)C)c3nnc(C)n3-c3sc(C)c(C)c32)cc1 [compound 9231]	–	–	–	0.05 to 0.2 µM	< 0.05 µM	< 20%
Cc1sc2c(c1C)C(c1ccc(NC(=O)CCl)cc1)=N[C@@H](Cc1nccs1)c1nnc(C)n1-2 [compound 9250]	–	–	–	< 0.05 µM	< 0.05 µM	80 to 100%
CC#CC(=O)Nc1ccc(C2=N[C@@H](Cc3nccs3)c3nnc(C)n3-c3sc(C)c(C)c32)cc1 [compound 9253]	–	–	–	< 0.05 µM	< 0.05 µM	50 to 80%
CC#CC(=O)Nc1ccc(C2=N[C@@H](CC(=O)OC(C)(C)C)c3nnc(C)n3-c3sc(C)c(C)c32)cc1 [compound 9259]	–	–	–	< 0.05 µM	< 0.05 µM	20 to 50%
C#CC(=O)Nc1ccc(C2=N[C@@H](CC(=O)OC(C)(C)C)c3nnc(C)n3-c3sc(C)c(C)c32)cc1 [compound 9260]	–	–	–	< 0.05 µM	< 0.05 µM	< 20%
